Measured values from US11000033B2, “Ketone or oxime compound, and herbicide” (NISSAN CHEMICAL CORPORATION, priority 2014, dated 2021).

Key:
Format in all cases: in vivo
[1] = tested on: rice plant; experiment: Test Example 5: effect on crop by foliage application, plastic box (symbol b); details: 320 g/ha, 3 weeks after application
Outline: (§1)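 Greenhouse culture at 25° C. to 30° C. followed spot-like sowing into sterilized diluvial soil, with seed covered by roughly 1.5 cm of soil.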

[2] = tested on: Setaria viridis; experiment: Test Example 4: herbicidal effect by soil treatment (symbol G); details: application herbicide amount 320 g/ha
Outline: (§2)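 Seeds were sown in sterilized diluvial soil, covered with about 1.5 cm of soil, and the soil surface was sprayed with a water-diluted emulsion of the compound at a predetermined rate. Plants grew in a greenhouse at 25° C. to 30° C.; effects were scored visually 3 weeks after application.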

[3] = tested on: corn; experiment: Test Example 5: effect on crop by foliage application, plastic box (symbol c); details: 320 g/ha, 3 weeks after application
Outline: as §1

[4] = tested on: Lolium multiflorum Lam.; experiment: Test Example 5: herbicidal effect by foliage application, plastic box (symbol K); details: 320 g/ha, 3 weeks after application
Outline: (§3)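 Sowing in sterilized diluvial soil, 14 days' greenhouse growth at 25° C. to 30° C., then uniform small-sprayer foliar application of aqueous emulsion dilution; plants scored three weeks afterwards.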

[5] = tested on: wheat; experiment: Test Example 4: effect on crop by soil treatment (symbol e); details: application herbicide amount 320 g/ha
Outline: (§4)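 Steps: fill box with sterilized diluvial soil; sow seed spot-like; cover with ~1.5 cm soil; grow in greenhouse (25° C. to 30° C.).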

[6] = tested on: Alopecurus myosuroides; experiment: Test Example 5: herbicidal effect by foliage application, plastic box (symbol J); details: 320 g/ha, 3 weeks after application
Outline: as §3

[7] = tested on: soybean; experiment: Test Example 4: effect on crop by soil treatment (symbol d); details: application herbicide amount 320 g/ha
Outline: as §4

[8] = tested on: Echinochloa crus-galli var. crus-galli; experiment: Test Example 3: herbicidal effect by foliage application, Wagner pot (symbol H); details: application herbicide amount 320 g/ha
Outline: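 Scoring took place 3 weeks after application, using fixed criteria. Plants had been raised from seed for 14 days at 25 to 30 °C in submerged alluvial soil before a diluted emulsion of the test compound was sprayed uniformly on the leaves.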

[9] = tested on: Digitaria ciliaris; experiment: Test Example 5: herbicidal effect by foliage application, plastic box (symbol F); details: 320 g/ha, 3 weeks after application
Outline: as §3

[10] = tested on: directly sowed rice plant; experiment: Test Example 3: effect on crop by foliage application, Wagner pot (symbol b); details: application herbicide amount 320 g/ha
Outline: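 Steps: fill a 1/10000-are Wagner pot with alluvial soil; add water and mix to submerge at 0.1–0.5 cm depth; sow rice plus Echinochloa crus-galli var. crus-galli, Leptochloa chinensis and Cyperus difformis; grow in a 25–30 °C greenhouse.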

[11] = tested on: rapeseed; experiment: Test Example 4: effect on crop by soil treatment (symbol g); details: application herbicide amount 320 g/ha
Outline: as §4

[12] = tested on: Apera spica-venti; experiment: Test Example 5: herbicidal effect by foliage application, plastic box (symbol L); details: 320 g/ha, 3 weeks after application
Outline: as §3

[13] = tested on: Avena fatua; experiment: Test Example 5: herbicidal effect by foliage application, plastic box (symbol I); details: 320 g/ha, 3 weeks after application
Outline: as §3

[14] = tested on: Apera spica-venti; experiment: Test Example 4: herbicidal effect by soil treatment (symbol L); details: application herbicide amount 320 g/ha
Outline: as §2

[15] = tested on: Stellaria media; experiment: Test Example 5: herbicidal effect by foliage application, plastic box (symbol P); details: 320 g/ha, 3 weeks after application
Outline: as §3

[16] = tested on: Chenopodium album; experiment: Test Example 5: herbicidal effect by foliage application, plastic box (symbol O); details: 320 g/ha, 3 weeks after application
Outline: as §3

[17] = tested on: Stellaria media; experiment: Test Example 4: herbicidal effect by soil treatment (symbol P); details: application herbicide amount 320 g/ha
Outline: as §2

CON=C(C)CC1CC(OC(=O)CCC2CCCCC2)=C(c2c(C)cc(C)cc2C)C1=O (stereo not drawn) [1-035]
b: directly sowed rice plant, effect on crop grade [1]: 5 (Herbicidal ratio of 90% or more (almost completely withered))
G (Setaria viridis) herbicidal effect grade [2]: 5 (Herbicidal ratio of 90% or more (almost completely withered))
c: corn, effect on crop grade [3]: 4 (Herbicidal ratio of 70% or higher and lower than 90%)
K: Lolium multiflorum Lam., herbicidal effect grade [4]: 5 (Herbicidal ratio of 90% or more (almost completely withered))
e (wheat) effect on crop grade [5]: 4 (Herbicidal ratio of 70% or higher and lower than 90%)
J: Alopecurus myosuroides, herbicidal effect grade [6]: 5 (Herbicidal ratio of 90% or more (almost completely withered))
d (soybean) effect on crop grade [7]: 0 (Herbicidal ratio of 5% or lower (almost no effect))
herbicidal effect on H (Echinochloa crus-galli var. crus-galli), grade 0-5 [8]: 5 (Herbicidal ratio of 90% or more (almost completely withered))
F: Digitaria ciliaris, herbicidal effect grade [9]: 5 (Herbicidal ratio of 90% or more (almost completely withered))
effect on crop b (directly sowed rice plant), grade 0-5 [10]: 5 (Herbicidal ratio of 90% or more (almost completely withered))
g (rapeseed) effect on crop grade [11]: 5 (Herbicidal ratio of 90% or more (almost completely withered))
L: Apera spica-venti, herbicidal effect grade [12]: 5 (Herbicidal ratio of 90% or more (almost completely withered))
I: Avena fatua, herbicidal effect grade [13]: 5 (Herbicidal ratio of 90% or more (almost completely withered))
L (Apera spica-venti) herbicidal effect grade [14]: 5 (Herbicidal ratio of 90% or more (almost completely withered))

CON=C(C)CC1CC(OC(=O)COc2ccc(Cl)cc2)=C(c2c(C)cc(C)cc2C)C1=O (stereo not drawn) [1-044]
b: directly sowed rice plant, effect on crop grade [1]: 5 (Herbicidal ratio of 90% or more (almost completely withered))
P: Stellaria media, herbicidal effect grade [15]: 0 (Herbicidal ratio of 5% or lower (almost no effect))
G (Setaria viridis) herbicidal effect grade [2]: 5 (Herbicidal ratio of 90% or more (almost completely withered))
c: corn, effect on crop grade [3]: 4 (Herbicidal ratio of 70% or higher and lower than 90%)
K: Lolium multiflorum Lam., herbicidal effect grade [4]: 5 (Herbicidal ratio of 90% or more (almost completely withered))
e (wheat) effect on crop grade [5]: 2 (Herbicidal ratio of 20% or higher and lower than 40%)
J: Alopecurus myosuroides, herbicidal effect grade [6]: 5 (Herbicidal ratio of 90% or more (almost completely withered))
d (soybean) effect on crop grade [7]: 0 (Herbicidal ratio of 5% or lower (almost no effect))
herbicidal effect on H (Echinochloa crus-galli var. crus-galli), grade 0-5 [8]: 5 (Herbicidal ratio of 90% or more (almost completely withered))
F: Digitaria ciliaris, herbicidal effect grade [9]: 5 (Herbicidal ratio of 90% or more (almost completely withered))
effect on crop b (directly sowed rice plant), grade 0-5 [10]: 5 (Herbicidal ratio of 90% or more (almost completely withered))
g (rapeseed) effect on crop grade [11]: 4 (Herbicidal ratio of 70% or higher and lower than 90%)
L: Apera spica-venti, herbicidal effect grade [12]: 5 (Herbicidal ratio of 90% or more (almost completely withered))
I: Avena fatua, herbicidal effect grade [13]: 5 (Herbicidal ratio of 90% or more (almost completely withered))
L (Apera spica-venti) herbicidal effect grade [14]: 5 (Herbicidal ratio of 90% or more (almost completely withered))

CON=C(C)CC1CC(OC(=O)C(C)(C)F)=C(c2c(C)cc(C)cc2C)C1=O (stereo not drawn) [1-039]
b: directly sowed rice plant, effect on crop grade [1]: 5 (Herbicidal ratio of 90% or more (almost completely withered))
P: Stellaria media, herbicidal effect grade [15]: 3 (Herbicidal ratio of 40% or higher and lower than 70%)
G (Setaria viridis) herbicidal effect grade [2]: 5 (Herbicidal ratio of 90% or more (almost completely withered))
c: corn, effect on crop grade [3]: 4 (Herbicidal ratio of 70% or higher and lower than 90%)
K: Lolium multiflorum Lam., herbicidal effect grade [4]: 5 (Herbicidal ratio of 90% or more (almost completely withered))
e (wheat) effect on crop grade [5]: 4 (Herbicidal ratio of 70% or higher and lower than 90%)
J: Alopecurus myosuroides, herbicidal effect grade [6]: 5 (Herbicidal ratio of 90% or more (almost completely withered))
d (soybean) effect on crop grade [7]: 0 (Herbicidal ratio of 5% or lower (almost no effect))
herbicidal effect on H (Echinochloa crus-galli var. crus-galli), grade 0-5 [8]: 5 (Herbicidal ratio of 90% or more (almost completely withered))
F: Digitaria ciliaris, herbicidal effect grade [9]: 5 (Herbicidal ratio of 90% or more (almost completely withered))
effect on crop b (directly sowed rice plant), grade 0-5 [10]: 5 (Herbicidal ratio of 90% or more (almost completely withered))
g (rapeseed) effect on crop grade [11]: 4 (Herbicidal ratio of 70% or higher and lower than 90%)
L: Apera spica-venti, herbicidal effect grade [12]: 5 (Herbicidal ratio of 90% or more (almost completely withered))
I: Avena fatua, herbicidal effect grade [13]: 5 (Herbicidal ratio of 90% or more (almost completely withered))
L (Apera spica-venti) herbicidal effect grade [14]: 5 (Herbicidal ratio of 90% or more (almost completely withered))

CC(CC1CC(O)=C(c2c(C)cc(Br)cc2C)C1=O)=NOCC(=O)N(C)C (mixture of isomers) [9-029]
b: directly sowed rice plant, effect on crop grade [1]: 3 (Herbicidal ratio of 40% or higher and lower than 70%)
P: Stellaria media, herbicidal effect grade [15]: 0 (Herbicidal ratio of 5% or lower (almost no effect))
Herbicidal effect grade, G: Setaria viridis [2]: 4 (Herbicidal ratio of 70% or higher and lower than 90%)
c: corn, effect on crop grade [3]: 4 (Herbicidal ratio of 70% or higher and lower than 90%)
K: Lolium multiflorum Lam., herbicidal effect grade [4]: 5 (Herbicidal ratio of 90% or more (almost completely withered))
Effect on crop grade, e: wheat [5]: 0 (Herbicidal ratio of 5% or lower (almost no effect))
J: Alopecurus myosuroides, herbicidal effect grade [6]: 1 (Herbicidal ratio of 5% or higher and lower than 20%)
Effect on crop grade, d: soybean [7]: 0 (Herbicidal ratio of 5% or lower (almost no effect))
H (Echinochloa crus-galli var. crus-galli) herbicidal effect grade ([8]; Table 24): 4 (Herbicidal ratio of 70% or higher and lower than 90%)
F: Digitaria ciliaris, herbicidal effect grade [9]: 3 (Herbicidal ratio of 40% or higher and lower than 70%)
b (directly sowed rice plant) effect on crop grade ([10]; Table 24): 3 (Herbicidal ratio of 40% or higher and lower than 70%)
O: Chenopodium album, herbicidal effect grade [16]: 0 (Herbicidal ratio of 5% or lower (almost no effect))
Effect on crop grade, g: rapeseed [11]: 0 (Herbicidal ratio of 5% or lower (almost no effect))
Herbicidal effect grade, P: Stellaria media [17]: 0 (Herbicidal ratio of 5% or lower (almost no effect))
L: Apera spica-venti, herbicidal effect grade [12]: 4 (Herbicidal ratio of 70% or higher and lower than 90%)
I: Avena fatua, herbicidal effect grade [13]: 5 (Herbicidal ratio of 90% or more (almost completely withered))

CON=C(C)CC1CC(OC(=O)COc2ccc(F)cc2)=C(c2c(C)cc(C)cc2C)C1=O (stereo not drawn) [1-073]
b: directly sowed rice plant, effect on crop (criteria 0-5) [1]: 5 (Herbicidal ratio of 90% or more (almost completely withered))
P: Stellaria media, herbicidal effect (criteria 0-5) [15]: 2 (Herbicidal ratio of 20% or higher and lower than 40%)
G (Setaria viridis) herbicidal effect grade [2]: 5 (Herbicidal ratio of 90% or more (almost completely withered))
c: corn, effect on crop (criteria 0-5) [3]: 4 (Herbicidal ratio of 70% or higher and lower than 90%)
K: Lolium multiflorum Lam., herbicidal effect (criteria 0-5) [4]: 5 (Herbicidal ratio of 90% or more (almost completely withered))
e (wheat) effect on crop grade [5]: 4 (Herbicidal ratio of 70% or higher and lower than 90%)
J: Alopecurus myosuroides, herbicidal effect (criteria 0-5) [6]: 5 (Herbicidal ratio of 90% or more (almost completely withered))
d (soybean) effect on crop grade [7]: 0 (Herbicidal ratio of 5% or lower (almost no effect))
herbicidal effect on H (Echinochloa crus-galli var. crus-galli), grade 0-5 [8]: 5 (Herbicidal ratio of 90% or more (almost completely withered))
F: Digitaria ciliaris, herbicidal effect (criteria 0-5) [9]: 5 (Herbicidal ratio of 90% or more (almost completely withered))
effect on crop b (directly sowed rice plant), grade 0-5 [10]: 5 (Herbicidal ratio of 90% or more (almost completely withered))
g (rapeseed) effect on crop grade [11]: 4 (Herbicidal ratio of 70% or higher and lower than 90%)
L: Apera spica-venti, herbicidal effect (criteria 0-5) [12]: 5 (Herbicidal ratio of 90% or more (almost completely withered))
I: Avena fatua, herbicidal effect (criteria 0-5) [13]: 5 (Herbicidal ratio of 90% or more (almost completely withered))
L (Apera spica-venti) herbicidal effect grade [14]: 5 (Herbicidal ratio of 90% or more (almost completely withered))
